Experiment: Actual dose of vitamin on inkjet-printed areas, immersed in water, by UV/Vis absorbance
Type: physicochemical
Conditions: for Vitamin B3 dose, measured: 262 nm
Procedure: Two different ink solutions were used to print the vitamins onto the substrates. […] The solutions were filtered with 0.2 μm polypropylene membrane filter (Whatman, GE Healthcare, Piscataway, N.J., USA) before printing. Inkjet printing was performed with a […] printer (Fujifilm […] Clara, Calif., USA). In the printer, a MEMS-based cartridge-styled printhead with 16 nozzles linearly spaced at 254 μm that produce a nominal drop size of […] was used. Printing was performed in ambient conditions (relative humidity 45.5±5%, 21±1° C.) with a single nozzle using firing voltage of 35 V. The cartridge temperature was 30° C., and the drops were deposited at a drop spacing of 10 μm, 20 μm and 30 μm. The vitamins were printed in squares of 1 cm×1 cm on normal copy paper (n=6) and on multilayer curtain coated paper (n=1). […] Each printed area was immersed into predetermined amount of water and vigorously shaken. […] The calibration curves were done in water, as well.

Vitamin B2 dose, measured (drop spacing 10, 4 h incubation in water, 267 nm, theoretical 0.32 mg)	Vitamin B2 dose, measured (drop spacing 10, 4 h incubation in water, 373 nm, theoretical 0.32 mg)	Vitamin B2 dose, measured (drop spacing 10, second set of rows (no time heading printed), 267 nm, theoretical 0.32 mg)	Vitamin B2 dose, measured (drop spacing 10, second set of rows (no time heading printed), 373 nm, theoretical 0.32 mg)	Vitamin B2 dose, measured (drop spacing 20, 4 h incubation in water, 267 nm, theoretical 0.08 mg)	Vitamin B2 dose, measured (drop spacing 20, 4 h incubation in water, 373 nm, theoretical 0.08 mg)	Vitamin B2 dose, measured (drop spacing 20, second set of rows (no time heading printed), 267 nm, theoretical 0.08 mg)	Vitamin B2 dose, measured (drop spacing 20, second set of rows (no time heading printed), 373 nm, theoretical 0.08 mg)	Vitamin B2 dose, measured (drop spacing 30, 4 h incubation in water, 267 nm, theoretical 0.035 mg)	Vitamin B2 dose, measured (drop spacing 30, 4 h incubation in water, 373 nm, theoretical 0.035 mg)	Vitamin B2 dose, measured (drop spacing 30, second set of rows (no time heading printed), 267 nm, theoretical 0.035 mg)	Vitamin B2 dose, measured (drop spacing 30, second set of rows (no time heading printed), 373 nm, theoretical 0.035 mg)	Vitamin B3 dose, measured (drop spacing 10, 4 h incubation in water, 1 cm x 1 cm printed area, theoretical 0.501 mg)	Vitamin B3 dose, measured (drop spacing 10, 24 h incubation in water, theoretical 0.501 mg)	Vitamin B3 dose, measured (drop spacing 20, 4 h incubation in water, 1 cm x 1 cm printed area, theoretical 0.125 mg)	Vitamin B3 dose, measured (drop spacing 20, 24 h incubation in water, theoretical 0.125 mg)	Vitamin B3 dose, measured (drop spacing 30, 4 h incubation in water, 1 cm x 1 cm printed area, theoretical 0.056 mg)	Vitamin B3 dose, measured (drop spacing 30, 24 h incubation in water, theoretical 0.056 mg)	Compound
0.6255 mg	0.6459 mg	0.5847 mg	0.6141 mg	0.1337 mg	0.1403 mg	0.1199 mg	0.1276 mg	0.0623 mg	0.0658 mg	0.0521 mg	0.0560 mg	–	–	–	–	–	–	Cc1cc2nc3c(=O)[nH]c(=O)nc-3n(C[C@H](O)[C@H](O)[C@H](O)COP(=O)(O)O)c2cc1C [Vitamin B2, riboflavin sodium phosphate]
–	–	–	–	–	–	–	–	–	–	–	–	0.7594 mg	0.7323 mg	0.2213 mg	0.2142 mg	0.0717 mg	0.0687 mg	O=C(O)c1cccnc1 [Vitamin B3, niacin]

Source: patent US20160101108A1, “PRINTED DOSAGE FORMS” (ÅBO AKADEMI UNIVERSITY, priority 2013, published 2016)
